The text below walks through data of PubChem BioAssay (NCI).

Where “and” joins values, the source holds several entries; their conditions need not be identical. Equal values may be shown once.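 Growth conditions: 96-well plates. Treatment: test compound, 48 hours, 5 concentrations. Analysis: linear interpolation between bracketing concentrations; unreached endpoints set to highest concentration. GI50 marks 50% less growth. TGI: concentration producing complete growth inhibition.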

What all share (experiment): NCI anticancer screen, dose series, 48 h
Assay [1] concerns MDA-MB-231 breast.
In assay [2] the test system is HCT-116 colon.
Assay [3] concerns SNB-19 CNS.
Assay [4] relates to CCRF-CEM leukemia.
Assay [5] has as its system HS 578T breast.
The test system of assay [6] is UACC-257 melanoma.
Assay [7] concerns HL-60(TB) leukemia.
Assay [8] concerns SK-MEL-28 melanoma.
In assay [9] the test system is UACC-62 melanoma.
Assay [10] has as its system BT-549 breast.

With `COc1cccc2c1C(=O)c1c(O)c3c(c(O)c1C2=O)C[C@@](O)(/C(C)=N/NC(=O)c1ccc(Cl)cc1)C[C@@H]3OC1CC(N)C(O)C(C)O1` (some centres not stated), the GI50 in [1] is 0.603 µM; in assay [2], 147 nM; in [3], 0.162 µM; in assay [4] it was 90.3 nM; in [5], 0.369 µM; in assay [6], 0.188 µM. Moreover, the TGI in [1] was 2.77 µM; in assay [2], 1.49 µM; in [3], 1.9 µM; in assay [4], 2.32 µM; in assay [5], 2.52 µM; in [6], 0.867 µM.

Take `[N-]=[N+]=N/C1=C/CCCCC(=O)C1`: the TGI in assay [7], in [3], in [4], in assay [8], in assay [9] and in [6] was above 100 µM in each case.

With `C=CCN1CCC23c4c5ccc(O)c4OC2C(=NN=C2CCC4(O)C6Cc7ccc(O)c8c7C4(CCN6CC=C)C2O8)CCC3(O)C1C5` (configuration not stated), the TGI in assay [3] was above 100 µM; in assay [4], above 100 µM; in assay [8], 35.3 µM; in assay [9] it was 44.4 µM; in assay [6], 53.2 µM.

Turning to `Cc1ccc(S(=O)OCc2c(C)c(C)c(COS(=O)c3ccc(C)cc3)c(C)c2C)cc1` (configuration not stated), the TGI in assay [7], in assay [2], in assay [3], in assay [8], in assay [9] and in [6] was above 100 µM throughout.

Consider `CCN(CC)CCSc1c2ccccc2nc2c(OC)ccc(OC)c12`, for which the TGI in assay [7] was 17.7 µM; in [2], 17.7 µM; in assay [3], above 100 µM; in [4] it was above 68.9 µM; in assay [8], 8.91 µM; in [9], above 22.2 µM. In assay [6], this compound came in with a TGI of 16.5 µM.

For the compound `C[Si](C)(C)/C(Br)=C\CCN1C(=O)CCC1=O`, the TGI in assay [7], in assay [2], in assay [3], in assay [4], in assay [8] and in assay [9] was above 100 µM each time. The compound further registered a TGI in assay [6] above 100 µM.

Regarding `O=C1CCC(=O)c2c1c(O)c1ccncc1c2O`, the TGI in assay [7] came out at 26.4 µM; in [2], 27.9 µM; in assay [3] it was 89.2 µM; in [4], 39.4 µM; in assay [8] it was 34.8 µM; in [9] it was 20.1 µM. Moreover, the TGI in assay [6] was found to be 20.2 µM.

Turning to `C[Si](C)(C)/C(I)=C/CO`, the TGI came to 27.5 µM in [2]; 64.7 µM in assay [3]; 48.2 µM in assay [4]; 77.5 µM in [8]; 52.9 µM in [9]; 45.2 µM in [6].

For the compound `CC(C)(C)[Si](C)(C)OC1C(=O)C[C@H]2CCCC[C@@H]12` (some centres not stated), the TGI in assay [7], in [2], in assay [3], in [4], in assay [9] and in assay [6] was above 100 µM throughout.

As for `COC(=O)C1=C(C(=O)OC)C2=S(SC3=C2CCCC3)S1` (configuration not stated), the TGI in assay [7] was 30.9 µM; in assay [3], above 100 µM; in [4], 19.7 µM; in assay [8] it was above 100 µM; in assay [9] it was above 100 µM; in [6], above 100 µM.

Regarding `COc1ccc(-c2nnc(N3CCN(C(=O)CN4CCN(c5ccccc5)CC4)CC3)nc2-c2ccc(OC)cc2)cc1`, the GI50 in assay [7] is 1890 nM; in assay [1], 13.4 µM; in [2], 3190 nM; in assay [3], 12.8 µM; in [4], 5190 nM; in assay [8] it was 14.3 µM. Moreover, the values for the GI50 in assay [5], in assay [9] and in assay [6] were 5.15 µM, 6.48 µM and 6.17 µM, respectively. Also, the TGI is 5.56 µM in assay [7]; above 100 µM in assay [1]; above 100 µM in [2]; 77.3 µM in assay [3]; above 100 µM in assay [4]; above 100 µM in assay [8]. For the same compound, the TGI in assay [5] is 71.5 µM; in assay [9], 40 µM; in assay [6], above 100 µM.

Turning to `COc1ccc2c(c1)c[n+](C)c1c3cc(OC)c(OC)cc3ccc21`, the GI50 in assay [7] is 467 nM and 1850 nM; in assay [10] it was 2.4 µM and 10.2 µM; in assay [2] it was 1080 nM and 2480 nM; in assay [4], 559 nM and 1420 nM; in assay [8], 1.7 µM and 13 µM; in [6], 1.8 µM and 13.5 µM. Moreover, the TGI is 3.48 µM and 16.9 µM in assay [7]; 9.63 µM and 26.2 µM in [10]; 2.83 µM and 3.07 µM in assay [1]; 2.32 µM and 10 µM in [2]; 8.1 µM and 13.8 µM in assay [3]; > 100 µM and 12.4 µM in assay [4]. Further, the TGI in assay [8] is 3.45 µM and 27.3 µM; in [9], 23.9 µM; in assay [6] it was 4.36 µM and 30.8 µM.

Turning to `CN(C)CCNC(=O)c1cccc2c(Nc3ccc(S(=O)(=O)N=C(N)N)cc3)c3ccccc3nc12`, the TGI is 2.59 µM in assay [7]; above 100 µM in assay [2]; 17.9 µM in assay [3]; 30.2 µM in assay [4]; 71.2 µM in assay [8]; 22.8 µM in assay [9].

With `O=[N+]([O-])c1ccc(-c2cnc3ccccn23)cc1`, the TGI in assay [7], in [2], in assay [3], in assay [4], in [8] and in assay [9] was above 100 µM in each case. This compound showed a TGI in [6] above 100 µM.

For the compound `Cc1cc(N(CCCNc2ccnc3cc(Cl)ccc23)Cc2ccc3c(c2)OCO3)nc(N2CCOCC2)n1`, the GI50 is 0.334 µM in [10]; 0.303 µM in [1]; 245 nM in assay [2]; 0.325 µM in [3]; 380 nM in assay [4]; 0.254 µM in [8]. Moreover, the GI50 is 0.288 µM in assay [5], 0.217 µM in assay [9] and 0.214 µM in assay [6]. The TGI in assay [10] is 23.5 µM; in assay [1] it was 1.37 µM; in assay [2], 0.882 µM; in assay [3], above 100 µM; in assay [4], above 100 µM; in assay [8], 0.681 µM. The TGI in assay [5] stood at 18.6 µM; in assay [9], 0.501 µM; in assay [6] it was 0.625 µM.

As for `COc1ccc(/C(=C\C=C(C#N)C#N)Sc2nc3ccccc3s2)cc1`, the GI50 in assay [10] was 6.51 µM; in assay [1], 6.71 µM; in [3] it was 12.6 µM; in [5] it was 31.2 µM; in [9], 8.63 µM; in assay [6], 10.3 µM. Moreover, the TGI in assay [10] was 17.5 µM; in [1] it was 14.4 µM; in assay [3], 29.6 µM; in [5], above 50 µM; in assay [9], 18.7 µM; in [6], 23.7 µM.

In the case of `Cn1cnnc1Sc1c([N+](=O)[O-])ncn1C`, the TGI in [2], in assay [3], in assay [4], in assay [8], in assay [9] and in assay [6] was above 100 µM each time.

On to `C[C@]12CCC(=O)C=C1CC[C@@H]1C2CC[C@]2(C)Nc3[nH]ncc3CC12` (some centres not stated), for which the TGI in assay [7], in assay [2], in assay [4], in [8], in [9] and in assay [6] was above 100 µM each time.

Consider `COc1cc(/C=C\c2cc(OC)c(OC)c(OC)c2)cc(N/C=C\C(=O)c2cc(OC)c(OC)c(OC)c2)c1OC`, for which the GI50 in [7] is 3240 nM; in [1] it was 4.01 µM; in assay [2], 2780 nM; in assay [3], 4.49 µM; in [4] it was 2930 nM; in assay [8], 4.28 µM. Besides, the GI50 is 2.76 µM in assay [5], 3.11 µM in assay [9] and above 100 µM in assay [6]. In addition, the TGI is 42.2 µM in assay [7]; above 100 µM in [1]; above 100 µM in assay [2]; above 100 µM in [3]; above 100 µM in assay [4]; above 100 µM in assay [8]. Besides, the TGI in assay [5], in assay [9] and in assay [6] was above 100 µM throughout.

With `Oc1ccc(Nc2c3ccccc3nc3occ(Cl)c23)cc1`, the GI50 was 19.4 µM in [10]; 2.43 µM in assay [1]; 5850 nM in assay [2]; 4.62 µM in [3]; 1420 nM in assay [4]; 6.18 µM in assay [8]. Also, the GI50 in assay [5] was 5.62 µM; in [9], 2.4 µM. Further, the TGI in assay [10] is above 100 µM; in assay [1], 7.39 µM; in [2], above 100 µM; in assay [3], above 100 µM; in assay [4], 6.12 µM; in assay [8], 63.8 µM. Moreover, the TGI was above 100 µM in assay [5] and 10.4 µM in assay [9].

With `COC(=O)c1ccc(-c2c(C#N)[n+](=O)c3cc(Cl)c(Cl)cc3n2[O-])cc1`, the GI50 in [10] is 16.8 µM; in assay [1], 14.4 µM; in assay [2], 13300 nM; in assay [3], 18.2 µM; in assay [4], 2850 nM; in assay [8] it was 17.2 µM. Also, the GI50 in [5] was 25.7 µM; in assay [9], 15.3 µM; in assay [6] it was 21.5 µM. For the same compound, the TGI in assay [10] was 34 µM; in assay [1] it was 33.5 µM; in [2], above 100 µM; in [3] it was 38.9 µM; in assay [4], 7.79 µM; in assay [8], 34.8 µM. For the same compound, the results for the TGI in assay [5], in [9] and in assay [6] were 92.2 µM, 31.7 µM and 50.1 µM, respectively.

On to `O=C(O)c1ccc(C(=O)O)c2c(C(=O)O)ccc(C(=O)O)c12`, for which the TGI in assay [1], in assay [2], in [3], in [8], in assay [5] and in [9] was above 100 µM in each case. This compound also came in with a TGI in assay [6] above 100 µM.

On to `CS/C(=C(\S)c1ccccc1)c1ccccc1`, for which the TGI in assay [7], in assay [2], in assay [3], in [8], in assay [9] and in assay [6] was above 100 µM in each case.

Take `Clc1nc(Cl)nc(Nc2cccc3ccccc23)n1`: the GI50 in [7] is above 100000 nM; in assay [1], 63.9 µM; in [2], 47100 nM; in [3], above 100 µM; in [4] it was 33400 nM; in assay [8] it was above 100 µM. For the same compound, the GI50 was above 100 µM in assay [5], 82.5 µM in assay [9] and above 100 µM in [6]. For the same compound, the TGI in [7], in [1], in [2], in [3], in [4] and in assay [8] was above 100 µM in each case. The TGI in [5], in [9] and in assay [6] was above 100 µM each time.

For the compound `CSc1ccccc1C#C/C=C\C#Cc1ccccc1N`, the GI50 in [7] is 3970 nM; in assay [10], 3.27 µM; in assay [1], 4.69 µM; in assay [2], 4580 nM; in assay [3], 22.2 µM; in [4], 4980 nM. The figures for the GI50 in [8], in assay [9] and in assay [6] were 24.7 µM, 7.83 µM and 43.5 µM, respectively. The TGI is above 100 µM in [7]; 9.17 µM in [10]; 22.2 µM in assay [1]; 16.9 µM in [2]; above 100 µM in [3]; above 100 µM in assay [4]. Further, the TGI in [8] was 50.4 µM; in assay [9], 34.9 µM; in [6], above 100 µM.
